From the OligoGym collection
“And” between values parts separate entries of the source, which are not always exact repeats. Equal entries are not always repeated. After the bases stand the sugars from the 5' end (letter, count) and the backbone: PS all phosphorothioate, else s phosphorothioate and o phosphodiester by linkage. Methylation of C is not given here. e = 2'-O-(2-methoxyethyl) (MOE); k = constrained ethyl (cEt); d = 2'-deoxy (DNA)

Target: SOD1
Details: ASO

Sequence: CACCTTCACTGGTCCAT (sugars e3 k2 d7 k2 e3, PS)
- target mRNA inhibition (HepG2, 0.1875 µM): 19%
- target mRNA inhibition (HepG2, 0.75 µM): 39%
- target mRNA inhibition (HepG2, 3 µM): 53% and 69%
- target mRNA inhibition (HepG2, 12 µM): 88%

Sequence: TGTGATTTAAGTCTGGC (sugars e2 k2 d9 k2 e2, PS)
- target mRNA inhibition (HepG2, 5 µM): 58%

Sequence: ATGTTTATCAGGATACA (sugars e4 d8 e5, linkages s1 o2 s9 o2 s2)
- target mRNA inhibition (A431, 0.062 µM): 0%
- target mRNA inhibition (A431, 0.185 µM): 4%
- target mRNA inhibition (A431, 0.556 µM): 10%
- target mRNA inhibition (A431, 1.667 µM): 33%
- target mRNA inhibition (A431, 5 µM): 56%
- target mRNA inhibition (A431, 15 µM): 50%
- target mRNA inhibition (SH-SY5Y, 0.062 µM): 0%
- target mRNA inhibition (SH-SY5Y, 0.185 µM): 4%
- target mRNA inhibition (SH-SY5Y, 0.556 µM): 32%
- target mRNA inhibition (SH-SY5Y, 1.667 µM): 37%
- target mRNA inhibition (SH-SY5Y, 5 µM): 61%
- target mRNA inhibition (SH-SY5Y, 15 µM): 83%

Sequence: CTGCAGGAGACTACGACGCA (sugars e5 d10 e5, PS)
- target mRNA inhibition (HepG2, 4 µM): 36%

Sequence: AGTTTCTCACTACAGGT (sugars e2 k2 d8 k2 e3, PS)
- target mRNA inhibition (HepG2, 5 µM): 33%

Sequence: ATGTTTATCAGGATAC (sugars ekddddddddekekee, linkages s1 o1 s8 o3 s2)
- target mRNA inhibition (A431, 0.12 µM): 0%
- target mRNA inhibition (A431, 0.6 µM): 7%
- target mRNA inhibition (A431, 3 µM): 26%
- target mRNA inhibition (A431, 15 µM): 59%
- target mRNA inhibition (HepG2, 0.222 µM): 64%
- target mRNA inhibition (HepG2, 0.667 µM): 81%
- target mRNA inhibition (HepG2, 2 µM): 90%
- target mRNA inhibition (HepG2, 6 µM): 94%

Sequence: TTATTGGGCGATCCCAA (sugars e2 k2 d8 k2 e3, PS)
- target mRNA inhibition (HepG2, 4 µM): 41%

Sequence: ACTATACAAATCTTCCA (sugars e3 k2 d7 k2 e3, PS)
- target mRNA inhibition (HepG2, 3 µM): 10%

Sequence: TCTCACTACAGGTACTT (sugars e2 k2 d8 k2 e3, PS)
- target mRNA inhibition (HepG2, 5 µM): 42%

Sequence: GCTAGCAGGATAACAGA (sugars e2 k2 d8 k2 e3, PS)
- target mRNA inhibition (HepG2, 4 µM): 19%

Sequence: ACTTTAAAGCAACTCTGAAA (sugars e5 d10 e5, PS)
- target mRNA inhibition (HepG2, 5 µM): 0%

Sequence: GTTTCTCACTACAGGTA (sugars e2 k2 d9 k2 e2, PS)
- target mRNA inhibition (HepG2, 5 µM): 38%

Sequence: GGCCTTCAGTCAGTCCTTTA (sugars e5 d10 e5, PS)
- target mRNA inhibition (HepG2, 5 µM): 41% and 39%

Sequence: AGGTACTTTAAAGCAAC (sugars e2 k2 d8 k2 e3, PS)
- target mRNA inhibition (HepG2, 5 µM): 35%

Sequence: GCTTGAATGACAAAGAA (sugars e2 k2 d8 k2 e3, PS)
- target mRNA inhibition (HepG2, 5 µM): 24%

Sequence: CAGGATAACAGATGAGT (sugars e2 k2 d8 k2 e3, PS)
- target mRNA inhibition (HepG2, 0.1875 µM): 62%
- target mRNA inhibition (HepG2, 0.75 µM): 89%
- target mRNA inhibition (HepG2, 3 µM): 95%
- target mRNA inhibition (HepG2, 4 µM): 95%
- target mRNA inhibition (HepG2, 12 µM): 95%

Sequence: TAGCCTCATAATAAGTG (sugars e2 k2 d9 k2 e2, PS)
- target mRNA inhibition (HepG2, 5 µM): 27%

Sequence: CCGTCGCCCTTCAGCAC (sugars e2 k2 d9 k2 e2, PS)
- target mRNA inhibition (HepG2, 0.1875 µM): 24%
- target mRNA inhibition (HepG2, 0.75 µM): 42%
- target mRNA inhibition (HepG2, 3 µM): 80%
- target mRNA inhibition (HepG2, 4 µM): 75%
- target mRNA inhibition (HepG2, 12 µM): 94%

Sequence: CATTGCCCAAGTCTCCAACA (sugars e5 d10 e5, PS)
- target mRNA inhibition (HepG2, 5 µM): 39% and 25%

Sequence: AAACTATACAAATCTTC (sugars e2 k2 d9 k2 e2, PS)
- target mRNA inhibition (HepG2, 5 µM): 55%

Sequence: TTTTCATGGACCACCAGTGT (sugars e5 d10 e5, PS)
- target mRNA inhibition (HepG2, 5 µM): 17%

Sequence: AGACATTTTAACTGAGT (sugars e2 k2 d8 k2 e3, PS)
- target mRNA inhibition (HepG2, 5 µM): 46%

Sequence: ACACCTTCACTGGTCCATTA (sugars e5 d10 e5, linkages s1 o3 s11 o3 s1)
- target mRNA inhibition (A431, 0.12 µM): 5%
- target mRNA inhibition (A431, 0.6 µM): 4%
- target mRNA inhibition (A431, 3 µM): 4%
- target mRNA inhibition (A431, 15 µM): 10%
- target mRNA inhibition (HepG2, 2 µM): 50% and 36% and 39%

Sequence: TCAGACTACATCCAAGG (sugars e2 k2 d9 k2 e2, PS)
- target mRNA inhibition (HepG2, 0.1875 µM): 0%
- target mRNA inhibition (HepG2, 0.75 µM): 47%
- target mRNA inhibition (HepG2, 3 µM): 75%
- target mRNA inhibition (HepG2, 4 µM): 78%
- target mRNA inhibition (HepG2, 12 µM): 90%

Sequence: AAGTGATCATAAATCAGTTT (sugars e5 d10 e5, PS)
- target mRNA inhibition (HepG2, 4 µM): 86%
- target mRNA inhibition (HepG2, 5 µM): 8%
- target mRNA inhibition (HepG2, 12 µM): 96%

Sequence: TCACTGGTCCATTACTT (sugars e3 k2 d7 k2 e3, PS)
- target mRNA inhibition (HepG2, 3 µM): 15%

Sequence: GTCGCCCTTCAGCACGC (sugars e2 k2 d8 k2 e3, PS)
- target mRNA inhibition (HepG2, 4 µM): 60%

Sequence: GTCATCTGCTTTTTCAT (sugars e3 k2 d7 k2 e3, PS)
- target mRNA inhibition (HepG2, 3 µM): 74%

Sequence: TTAAGTCTGGCAAAATA (sugars e3 k2 d7 k2 e3, PS)
- target mRNA inhibition (HepG2, 3 µM): 2%

Sequence: GCCTCATAATAAGTGCC (sugars e2 k2 d8 k2 e3, PS)
- target mRNA inhibition (HepG2, 5 µM): 41%

Sequence: GCTTCCCCACACCTTCACTG (sugars e5 d10 e5, PS)
- target mRNA inhibition (HepG2, 3 µM): 50%

Sequence: CACCACAAGCCAAACGA (sugars e2 k2 d8 k2 e3, PS)
- target mRNA inhibition (HepG2, 4 µM): 48%

Sequence: TCCAAGTGATCATAAAT (sugars e2 k2 d8 k2 e3, PS)
- target mRNA inhibition (HepG2, 5 µM): 42%

Sequence: CCAAGTGATCATAAATC (sugars e2 k2 d8 k2 e3, PS)
- target mRNA inhibition (HepG2, 5 µM): 40%
